Reference: ChEMBL document CHEMBL1201862, “PubChem BioAssay data set” (2004)
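Method: 48-hour compound exposure of cells in 96-well plates, five concentrations, linear interpolation of endpoints. GI50 = concentration required for 50% inhibition of growth.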 The source made the active and inactive calls. No stated cut-off is given here; in the data, active = GI50 up to about 1.1 µM and inactive = higher.

Legend:
Experiment in all cases: NCI anticancer screen, dose series, 48 h
MDA-N = test system: MDA-N
K562 = test system: K562
TK-10 = test system: TK-10
OVCAR-3 = test system: OVCAR-3
SNB-78 = test system: SNB-78
COLO 205 = test system: COLO 205
MDA-MB-435 = test system: MDA-MB-435
NCI/ADR-RES = test system: NCI/ADR-RES
HCC 2998 = test system: HCC 2998
CAKI-1 = test system: CAKI-1
A498 = test system: A498
SNB-19 = test system: SNB-19
OVCAR-4 = test system: OVCAR-4
SK-OV-3 = test system: SK-OV-3
M19-MEL = test system: M19-MEL
NCI-H23 = test system: NCI-H23
HCT-15 = test system: HCT-15
SF-295 = test system: SF-295
ACHN = test system: ACHN
UACC-257 = test system: UACC-257

Row | Structure (SMILES) | GI50 (MDA-N) | GI50 (K562) | GI50 (TK-10) | GI50 (OVCAR-3) | GI50 (SNB-78) | GI50 (COLO 205) | GI50 (MDA-MB-435) | GI50 (NCI/ADR-RES) | GI50 (HCC 2998) | GI50 (CAKI-1) | GI50 (A498) | GI50 (SNB-19) | GI50 (OVCAR-4) | GI50 (SK-OV-3) | GI50 (M19-MEL) | GI50 (NCI-H23) | GI50 (HCT-15) [µM] | GI50 (SF-295) | GI50 (ACHN) | GI50 (UACC-257)
1 | COC1=CC(=O)c2c(O)c3c(c(O)c2C1=O)C[C@](C)(O)C[C@@H]3O | 1.88 µM (inactive) | 4.24 µM (inactive) | 23.2 µM (inactive) | 0.861 µM (active) | 3.85 µM (inactive) | 1.77 µM (inactive) | 1.88 µM (inactive) | 3.78 µM (inactive) | 3.67 µM (inactive) | 17.4 µM (inactive) | 7.66 µM (inactive) | 4.92 µM (inactive) | 3.72 µM (inactive) | 14.1 µM (inactive) | 0.296 µM (active) | 2.43 µM (inactive) | 4.01 | 3.51 µM (inactive) | 5.15 µM (inactive) | 1.99 µM (inactive)
2 | COc1ccc(/N=C\c2ccc(N(CCC#N)CCC#N)cc2)cc1 | 63.8 µM (inactive) | 7.62 µM (inactive) | 64.1 µM (inactive) | 78.3 µM (inactive) | > 100 µM (inactive) | 44.2 µM (inactive) | 32.8 µM (inactive) | > 100 µM (inactive) | 38.8 µM (inactive) | 69.2 µM (inactive) | > 100 µM (inactive) | 90.2 µM (inactive) | > 86.1 µM (inactive) | > 100 µM (inactive) | 34.1 µM (inactive) | > 100 µM (inactive) | 17.4 | 54.1 µM (inactive) | 26.7 µM (inactive) | > 100 µM (inactive)
3 | O=C1CCC(C(=O)O)C2=C1CCCC2 (centres undefined) | > 100 µM (inactive) | > 100 µM (inactive) | > 100 µM (inactive) | > 100 µM (inactive) | > 100 µM (inactive) | > 100 µM (inactive) | > 100 µM (inactive) | > 100 µM (inactive) | > 100 µM (inactive) | > 100 µM (inactive) | > 100 µM (inactive) | > 36.2 µM (inactive) | > 100 µM (inactive) | > 43.4 µM (inactive) | > 100 µM (inactive) | > 15.5 µM (inactive) | > 100 | > 36.1 µM (inactive) | > 100 µM (inactive) | > 100 µM (inactive)
4 | CC1C2C=C(O)C(=O)C(C2=O)C1c1ccccc1 (centres undefined) |  | > 100 µM (inactive) | > 100 µM (inactive) | > 100 µM (inactive) | 87.5 µM (inactive) | > 100 µM (inactive) |  |  | > 100 µM (inactive) | > 100 µM (inactive) | > 100 µM (inactive) | > 100 µM (inactive) | > 100 µM (inactive) | > 100 µM (inactive) | > 100 µM (inactive) | > 100 µM (inactive) | > 100 | > 100 µM (inactive) | > 100 µM (inactive) | > 100 µM (inactive)
5 | CN(C)c1ccccc1CC(c1c[nH]c2ccccc12)c1c[nH]c2ccccc12 |  | 10.7 µM (inactive) | 16.2 µM (inactive) | 12.8 µM (inactive) | 14.4 µM (inactive) | 2.82 µM (inactive) |  |  | 9.46 µM (inactive) | 4.94 µM (inactive) | 17.1 µM (inactive) | 14.4 µM (inactive) | 9.06 µM (inactive) | 19.3 µM (inactive) | 14.9 µM (inactive) | 6.85 µM (inactive) | 12.2 | 11.9 µM (inactive) | 8.36 µM (inactive) | 16.2 µM (inactive)
